Measurements published in patent publication US20230203063A1, “TRICYCLIC PYRIDONES AND PYRIMIDONES” (Erasca, Inc., priority 2019, published 2023).

Each compound was assayed against T1, mutant G12C K-RAS (Homo sapiens, UniProt P01116, G12C) (assay: covalent adduct formation (CAF) with mutant G12C K-RAS). Conditions: Table 6; 10 uM, 1 h.
T1 construct: made in house; host or cells: E. coli BL21
Type: binding
Experimental: Embodiments disclosed herein are further illustrated by the following examples in Tables 1-4 and the Examples hereinbelow. The Tables indicate the compound number, structure, the observed mass spectral molecular weight peak, and covalent adduct formation (CAF) with a mutant G12C K-RAS after 60 minutes at a concentration of 10 micromolar.

Row | % CAF @ 10 uM, 1 h | Compound
1 | 0% | C=CC(=O)N1CCN(c2nc(=O)n3c4c(c(-c5c(O)cccc5F)c(Cl)cc24)OC[C@H]3CN2CCOCC2)[C@@H](C)C1 [Example 199, (3R,10R)-7-((S)-4-aciyloyl-2-methylpiperazin-1-yl)-9-chloro-10-(2-fluoro-6-hydroxyphenyl)-3-(morpholinomethyl)-2,3-dihydro-5H-[1,4]oxazino[2,3,4-ij]quinazolin-5-one]
2 | 3% | C=CC(=O)N1C[C@H](C)N(c2nc(=O)n3c4c(c(-c5c(O)cccc5F)c(Cl)cc24)OC[C@@H]3CN(C)CC(F)(F)F)C[C@H]1C (atropisomer, axis not shown) [Example 239, (3S,10R)-7-((2S,5R)-4-acryloyl-2,5-dimethylpiperazin-1-yl)-9-chloro-10-(2-fluoro-6-hydroxyphen-yl)-3-((methyl(2,2,2-trifluoroethyl)amino)-methyl)-2H-[1,4]-oxazino[2,3,4-ij]-quinazolin-5(3H)-one]
3 | 0% | C=CC(=O)N1C[C@H](C)N(c2nc(=O)n3c4c(c(-c5c(O)cccc5F)c(Cl)cc24)OC[C@H]3CN2CCN(C)CC2)C[C@H]1C (atropisomer, axis not shown) [Example 300, (3R,10R)-7-((2S,5R)-4-acryloyl-2,5-dimethylpiperazin-1-yl)-9-chloro-10-(2-fluoro-6-hydroxyphen-yl)-3-((4-methylpiper-azin-1-yl)methyl)-2,3-dihydro-5H-[1,4]-oxazino[2,3,4-ij]-quinazolin-5-one]
